Where two headings read alike, the source gives them in different places.
Columns and labels:
[1] = system: Pseudomonas DacB Mutant (hiperproducing AMPC); test: Silver-antibiotics interaction study, MicroScan (Example 4); format: cell-based, Pseudomonas aeruginosa; conditions: subinhibitory colloidal silver (½ or 1/10 MIC)
Description: (§1) The effect of subinhibitory concentrations of colloidal silver (namely, ½ and 1/10 dilution of the MIC obtained in Example 3) in the presence of different types of antibiotics was tested.
(§2) For this, an automated equipment MicroScan AutoScan 4 (Siemens) was used, using Gram negative (Becman Coulter NM37) and Gram positive (Becman Coulter PM28) cards.
(§3) Each of these broths served as inoculum for the cards with antibiotics (for each strain, thus 3 cards were prepared). • Incubating the plates with antibiotics (in presence and absence of silver) at 37° C. for 24 h. • Reading the cards by use of LabPro software, and interpretation of the obtained values of MIC (determine if the silver reduces the initial MCI of each antibiotic).

[2] = system: S. aureus Sa-12 (strain 11); test: Epsilometry E-test, absence and presence of silver (Example 5); format: cell-based; conditions: Staphylococcus aureus, strain 11 (S. aureus Sa-12)
Description: (§4) In order to evaluate the synergy of collargol-antibiotics an epsilometry E-test was carried out. Said test is based on the agar diffusion method and relates to using a strip with a predefined steady gradient of 15 concentrations of the antibiotic being tested. After strain growth, an elliptical inhibition halo, being the MIC the antibiotic concentration corresponding to the cutting point.
(§5) It was performed for the antibiotics vancomycin, linezolid and tedizolid, in absence and presence of silver (½ and 1/10 MIC).

[3] = system: S.aureus ATCC 700698 Sa-SARM (strain 15); test: as above; format: cell-based; conditions: Staphylococcus aureus, ATCC700698, strain 15 (S.aureus ATCC 700698, Sa-SARM)
Description: as §4, §5

[4] = system: S. epidermidis Se-1 (strain 14); test: as above; format: cell-based; conditions: Staphylococcus epidermidis, strain 14 (S. epidermidis Se-1)
Description: as §4, §5

[5] = system: S. aureus Sa-11 (strain 10); test: as above; format: cell-based; conditions: Staphylococcus aureus, strain 10 (S. aureus Sa-11)
Description: as §4, §5

[6] = system: S. aureus Sa-13 (strain 12); test: as above; format: cell-based; conditions: Staphylococcus aureus, strain 12 (S. aureus Sa-13)
Description: as §4, §5

[7] = system: S. aureus Sa-3 (strain 3); test: as above; format: cell-based; conditions: Staphylococcus aureus, strain 3 (S. aureus Sa-3)
Description: as §4, §5

[8] = system: S. aureus Sa-10 (strain 9); test: as above; format: cell-based; conditions: Staphylococcus aureus, strain 9 (S. aureus Sa-10)
Description: as §4, §5

[9] = system: S. aureus Sa-9 (strain 8); test: as above; format: cell-based; conditions: Staphylococcus aureus, strain 8 (S. aureus Sa-9)
Description: as §4, §5

[10] = system: S. aureus Sa-1 (strain 1); test: as above; format: cell-based; conditions: Staphylococcus aureus, strain 1 (S. aureus Sa-1)
Description: as §4, §5

[11] = system: Klebsiella BLEE +; test: Silver-antibiotics interaction study, MicroScan (Example 4); format: cell-based, Klebsiella pneumoniae; conditions: subinhibitory colloidal silver (½ or 1/10 MIC)
Description: as §1, §2, §3

[12] = system: Pseudomonas MexR Mutant (efflux pump over-expression); test: as above; format: cell-based, Pseudomonas aeruginosa; conditions: colloidal silver at ½ MIC
Excerpt: as §2

[13] = system: E. coli BLEE +; test: as above; format: cell-based, Escherichia coli; conditions: subinhibitory colloidal silver (½ or 1/10 MIC)
Description: as §1, §2, §3

[14] = MH agar with 1/10 MIC of colargol, read-out: MIC (E-test) MH-1/10 MIC
[15] = MH agar with ½ MIC of colargol, read-out: MIC (E-test) MH-½ MIC
[16] = MH agar without silver, read-out: MIC (E-test) MH (without silver)

For CO/N=C(\C(=O)N[C@@H]1C(=O)N2C(C(=O)[O-])=C(C[N+]3(C)CCCC3)CS[C@H]12)c1csc(N)n1 [Cefepime], the “Effect of silver on the strain's sensitivity to the antibiotic” value (shortened to “Effect of silver”) [1] was “moderate effect improving the MIC values”.
With C[C@@H]1O[C@@H]1P(=O)(O)O [Fosfomicine, Fosfomycin] the “Effect of silver” value [1] was “change to sensitive”.
Work on CC(=O)NC[C@H]1CN(c2ccc(N3CCOCC3)c(F)c2)C(=O)O1 [Linezolid] yielded an MIC [2, 14] of 0.5 µg/mL, an MIC [2, 15] of 0.5 µg/mL and an MIC [2, 16] of 1 µg/mL. For the same compound, the MIC [3, 14] was 0.5 µg/mL, the MIC [3, 15] was 0.38 µg/mL and the MIC [3, 16] was 0.5 µg/mL. For the same compound, the MIC [4, 14] was 0.75 µg/mL, the MIC [4, 15] was 0.5 µg/mL and the MIC [4, 16] was 0.75 µg/mL. The MIC [5, 14] was 1.5 µg/mL, the MIC [5, 15] was 1.5 µg/mL and the MIC [5, 16] was 1.5 µg/mL. For the same compound, the MIC [6, 14] was 0.38 µg/mL, the MIC [6, 15] was 0.5 µg/mL and the MIC [6, 16] was 0.5 µg/mL. It also gave an MIC [7, 14] of 1.5 µg/mL, an MIC [7, 15] of 1 µg/mL and an MIC [7, 16] of 1.5 µg/mL. The MIC [8, 14] was 1 µg/mL, the MIC [8, 15] was 0.75 µg/mL and the MIC [8, 16] was 0.75 µg/mL.
In the case of CCN1CCN(C(=O)N[C@@H](C(=O)N[C@@H]2C(=O)N3[C@@H]2SC(C)(C)[C@@H]3C(=O)O)c2ccccc2)C(=O)C1=O [Piperacillin], the “Effect of silver” value [1] is reported as “moderate effect improving the MIC values”.
For Cn1nnc(-c2ccc(-c3ccc(N4C[C@H](CO)OC4=O)cc3F)cn2)n1 [Tedizolid], the MIC [2, 15] was 0.25 µg/mL, the MIC [2, 16] was 0.25 µg/mL and the MIC [4, 14] was 0.38 µg/mL. The MIC [4, 15] was 0.25 µg/mL, the MIC [4, 16] was 0.38 µg/mL and the MIC [5, 15] was 0.25 µg/mL. It also gave an MIC [5, 16] of 0.38 µg/mL, an MIC [7, 14] of 0.19 µg/mL and an MIC [7, 15] of 0.125 µg/mL. For the same compound, the MIC [7, 16] was 0.19 µg/mL, the MIC [8, 14] was 0.38 µg/mL and the MIC [8, 15] was 0.38 µg/mL. The MIC [8, 16] was 0.5 µg/mL, the MIC [9, 14] was 0.19 µg/mL and the MIC [9, 15] was 0.19 µg/mL. It also gave an MIC [9, 16] of 0.25 µg/mL, an MIC [10, 14] of 0.25 µg/mL and an MIC [10, 15] of 0.19 µg/mL. For the same compound, the MIC [10, 16] was 0.19 µg/mL.
In the case of C[C@H]1[C@H](NC(=O)/C(=N\OC(C)(C)C(=O)O)c2csc(N)n2)C(=O)N1S(=O)(=O)O [aztreonam, Aztreonam], the “Effect of silver” value [11] is reported as “becomes sensitive” and the “Effect of silver” value [1] is reported as “change to sensitive”.
For CO/N=C(\C(=O)N[C@@H]1C(=O)N2C(C(=O)O)=C(COC(C)=O)CS[C@H]12)c1csc(N)n1 [cefotaxime, Cefotaxime], the “Effect of silver” value [12] was “improvement in the MIC”.
For NC[C@H]1O[C@H](O[C@H]2[C@H](O)[C@@H](O[C@H]3O[C@H](CO)[C@@H](O)[C@H](N)[C@H]3O)[C@H](N)C[C@@H]2N)[C@H](N)C[C@@H]1O [tobramycin, Tobramycin], the “Effect of silver” value [13] was “becomes sensitive”.
With Colistin the “Effect of silver” value [12] was “improvement in the MIC” and the “Effect of silver” value [1] was “moderate effect improving the MIC values”.
For Gentamicin, the “Effect of silver” value [13] was “becomes sensitive”.

— US11304974B2, “Nanosystems comprising silver and antibiotics and their use for the treatment of bacterial infections” (priority 2017, dated 2022)
